# Experimental data taken from patent US20080293771A1, “AZACYCLYLBENZAMIDE DERIVATIVES AS HISTAMINE-3 ANTAGONISTS” (Wyeth, priority 2007, published 2008).
# Counter-ions that a name gives are not always drawn.
row,SMILES,melting point
1,Cc1nc2ccccc2n1-c1ccc(C(=O)N(C)[C@@H]2CCN(C3C4CC5CC(C4)CC3C5)C2)cc1 (stereo partly shown) (as salt: hydrochloride),257 to 259 °C
2,"CN(C(=O)c1ccc(Cn2ncc3ccccc32)cc1)[C@@H]1CCN(C2CCCC2)C1 (as salt: hydrochloride) [Example 78, N-[(3R)-1-cyclopentylpyrrolidin-3-yl]-4-(1H-indazol-1-ylmethyl)-N-methylbenzamide]",98 to 99 °C
3,"CN(C(=O)c1ccc(Cn2cccn2)cc1)C1CCN(C2CCCC2)CC1 (as salt: hydrochloride) [Example 93, N-(1-cyclopentylpiperidin-4-yl)-N-methyl-4-(1H-pyrazol-1-ylmethyl)benzamide]",250 °C (dec.)
4,"CN(C(=O)c1ccc(Cn2cnc3ccccc32)cc1)C1CCN(C2CCCC2)CC1 (as salt: hydrochloride) [Example 51, 4-(1H-benzimidazol-1-ylmethyl)-N-(1-cyclopentylpiperidin-4-yl)-N-methylbenzamide]",248 to 250 °C
5,Cc1nc2ccccc2n1-c1ccc(C(=O)N(C)[C@@H]2CCN(C3CCOCC3)C2)cc1 (as salt: hydrochloride),200 to 202 °C
6,"CN(C(=O)c1ccc(-n2ncc3ccccc32)cc1)C1CCN(C2CCCC2)CC1 (as salt: hydrochloride) [Example 74, N-(1-cyclopentylpiperidin-4-yl)-4-(1H-indazol-1-yl)-N-methylbenzamide]",240 °C (dec.)
7,"Cc1nc2ccccc2n1-c1ccc(C(=O)N(C)C2CCN(C3CCCC3)CC2)cc1F (as salt: hydrochloride) [Example 120, N-(1-cyclopentylpiperidin-4-yl)-3-fluoro-N-methyl-4-(2-methyl-1H-benzimidazol-1-yl)benzamide]",250 °C (dec.)
8,"CN(C(=O)c1ccc(-n2cc3ccccc3n2)cc1)[C@@H]1CCN(C2CCC2)C1 (as salt: hydrochloride) [Example 62, N-[(3R)-1-cyclobutylpyrrolidin-3-yl]-4-(2H-indazol-2-yl)-N-methylbenzamide]",163 to 165 °C
9,"Cc1nc2ccccc2n1-c1ccc(C(=O)N(C)[C@@H]2CCN(C3CCC3)C2)cc1F (as salt: hydrochloride) [Example 104, N-[(3R)-1-cyclobutylpyrrolidin-3-yl]-3-fluoro-N-methyl-4-(2-methyl-1H-benzimidazol-1-yl)benzamide]",164 to 166 °C
10,"CN(C(=O)c1ccc(-n2cc3ccccc3n2)cc1)[C@@H]1CCN(C2CCCC2)C1 (as salt: hydrochloride) [Example 63, N-[(3R)-1-cyclopentylpyrrolidin-3-yl]-4-(2H-indazol-2-yl)-N-methylbenzamide]",216 to 218 °C
11,"CN(C(=O)c1ccc(Cn2ncc3ccccc32)cc1)[C@@H]1CCN(C2CCC2)C1 (as salt: hydrochloride) [Example 77, N-[(3R)-1-cyclobutylpyrrolidin-3-yl]-4-(1H-indazol-1-ylmethyl)-N-methylbenzamide]",105 to 106 °C
12,"COc1cc(C(=O)N(C)C2CCN(C3CCCC3)CC2)ccc1-n1c(C)nc2ccccc21 (as salt: hydrochloride) [Example 126, N-(1-cyclopentylpiperidin-4-yl)-3-methoxy-N-methyl-4-(2-methyl-1H-benzimidazol-1-yl)benzamide]",244 to 246 °C
13,"COc1cc(C(=O)N(C)[C@@H]2CCN(C3CCC3)C2)ccc1-n1c(C)nc2ccccc21 (as salt: hydrochloride) [Example 110, N-[(3R)-1-cyclobutylpyrrolidin-3-yl]-3-methoxy-N-methyl-4-(2-methyl-1H-benzimidazol-1-yl)benzamide]",168 to 170 °C
14,"Cc1nc2cc(C#N)ccc2n1-c1ccc(C(=O)N(C)[C@@H]2CCN(C3CCCC3)C2)cc1 (as salt: hydrochloride) [Example 56, 4-(5-cyano-2-methyl-1H-benzimidazol-1-yl)-N-[(3R)-1-cyclopentylpyrrolidin-3-yl]-N-methylbenzamide]",185 to 187 °C
15,"CN(C(=O)c1ccc(Cn2ncc3ccccc32)cc1)[C@@H]1CCNC1 (as salt: hydrochloride) [Example 75, (R)-4-((1H-indazol-1-yl)methyl)-N-methyl-N-(pyrrolidin-3yl)benzamide]",255 to 256 °C

# The next lines start with the values.
row,melting point,SMILES
1,175 to 177 °C,Cc1nc2ccccc2n1-c1ccc(C(=O)N(C)[C@H]2CCN(C3CC[C@@H](C)C3)C2)cc1 (stereo partly shown) (as salt: hydrochloride)
2,210 to 212 °C,"COc1cc(-n2c(C)nc3ccccc32)ccc1C(=O)N(C)C1CCN(C2CCCC2)CC1 (as salt: hydrochloride) [Example 128, N-(1-cyclopentylpiperidin-4-yl)-2-methoxy-N-methyl-4-(2-methyl-1H-benzo[d]imidazol-1-yl)benzamide]"
3,250 °C (dec.),"Cc1nc2ccccc2n1-c1ccc(C(=O)N(C)C2CCN(C(C)C)CC2)c(Cl)c1 (as salt: hydrochloride) [Example 121, 2-chloro-N-methyl-4-(2-methyl-1H-benzimidazol-1-yl)-N-[1-(1-methylethyl)piperidin-4-yl]benzamide]"
4,179 to 180 °C,Cc1nc2ccccc2n1-c1ccc(C(=O)N(C)[C@H]2CCN(CC3CC3)C2)cc1 (as salt: hydrochloride)
5,192 to 194 °C,"Cc1nc2ccccc2n1Cc1ccc(C(=O)N(C)[C@@H]2CCN(C(C)C)C2)c2ccccc12 (as salt: hydrochloride) [Example 143a, (R)—N-(1-isopropylpyrrolidin-3-yl)-N-methyl-4-((2-methyl-1H-benzo[d]imidazol-1-yl)methyl)-1-naphthamide]"
6,164 to 166 °C,"Cc1cc(C(=O)N(C)[C@@H]2CCN(C3CCC3)C2)ccc1-n1c(C)nc2ccccc21 (as salt: hydrochloride) [Example 108, N-[(3R)-1-cyclobutylpyrrolidin-3-yl]-N,3-dimethyl-4-(2-methyl-1H-benzimidazol-1-yl)benzamide]"
7,157 to 159 °C,"Cc1nc2ccccc2n1Cc1ccc(C(=O)N(C)[C@@H]2CCN(C3CCC3)C2)c2ccccc12 (as salt: hydrochloride) [Example 143b, (R)—N-(1-cyclobutylpyrrolidin-3-yl)-N-methyl-4-((2-methyl-1H-benzo[d]imidazol-1-yl)methyl)-1-naphthamide]"
8,166 to 168 °C,"CC(C)N1CCC(N(C)C(=O)c2ccc(-n3cc4ccccc4n3)cc2)CC1 (as salt: hydrochloride) [Example 69, 4-(2H-indazol-2-yl)-N-(1-isopropylpiperidin-4-yl)-N-methylbenzamide]"
9,240 °C (dec.),"Cc1nc2ccccc2n1-c1ccc(C(=O)N(C)C2CCN(C3CCCC3)CC2)c(Cl)c1 (as salt: hydrochloride) [Example 122, 2-chloro-N-(1-cyclopentylpiperidin-4-yl)-N-methyl-4-(2-methyl-1H-benzimidazol-1-yl)benzamide]"
10,227 to 228 °C,"CC(C)N1CC[C@@H](N(C)C(=O)c2ccc(-n3cc4ccccc4n3)cc2)C1 (as salt: hydrochloride) [Example 61, 4-(2H-indazol-2-yl)-N-[(3R)-1-isopropylpyrrolidin-3-yl]-N-methylbenzamide]"
11,285 °C (dec.),"Cc1nc2ccccc2n1-c1ccc(C(=O)N(C)C2CCN(C3CCCCC3)CC2)cc1 (as salt: hydrochloride) [Example 33, N-(1-cyclohexylpiperidin-4-yl)-N-methyl-4-(2-methyl-1H-benzimidazol-1-yl)benzamide]"
12,189 to 190 °C,Cc1nc2ccccc2n1-c1ccc(C(=O)N(C)[C@@H]2CCN(CC(C)C)C2)cc1 (as salt: hydrochloride)
13,280 °C (dec.),"Cc1nc2ccccc2n1-c1ccc(C(=O)N(C)C2CCN(C3CCC3)CC2)cc1 (as salt: hydrochloride) [Example 34, N-(1-cyclobutylpiperidin-4-yl)-N-methyl-4-(2-methyl-1H-benzimidazol-1-yl)benzamide]"
14,190 to 192 °C,Cc1nc2ccccc2n1-c1ccc(C(=O)N(C)[C@@H]2CCN(CC3CCCC3)C2)cc1 (as salt: hydrochloride)
15,200 to 202 °C,"Cc1nc2ccccc2n1Cc1ccc(C(=O)N(C)C2CCN(C(C)C)CC2)cc1 (as salt: hydrochloride) [Example 46, N-(1-isopropylpiperidin-4-yl)-N-methyl-4-[(2-methyl-1H-benzimidazol-1-yl)methyl]benzamide]"
16,165 to 166 °C,Cc1nc2ccccc2n1-c1ccc(C(=O)N(C)[C@H]2CCN(C3CCCC3)C2)cc1 (as salt: hydrochloride)
17,193 to 195 °C,"COc1cc(-n2c(C)nc3ccccc32)ccc1C(=O)N(C)[C@@H]1CCN(C(C)C)C1 (as salt: hydrochloride) [Example 111, (R)—N-(1-isopropylpyrrolidin-3-yl)-2-methoxy-N-methyl-4-(2-methyl-1H-benzo[d]imidazol-1-yl)benzamide]"
18,153 to 155 °C,"Cc1nc2ccccc2n1Cc1ccc(C(=O)N(C)C2CCN(C(C)C)CC2)c2ccccc12 (as salt: hydrochloride) [Example 144b, N-(1-isopropylpiperidin-4-yl)-N-methyl-4-((2-methyl-1H-benzo[d]imidazol-1-yl)methyl)-1-naphthamide]"
19,215 to 217 °C,"COc1cc(-n2c(C)nc3ccccc32)ccc1C(=O)N(C)C1CCN(C(C)C)CC1 (as salt: hydrochloride) [Example 127, N-(1-isopropylpiperidin-4-yl)-2-methoxy-N-methyl-4-(2-methyl-1H-benzo[d]imidazol-1-yl)benzamide]"
20,173 to 175 °C,Cc1nc2ccccc2n1-c1ccc(C(=O)N(C)[C@H]2CCN(C3CCC(C)C3)C2)cc1 (stereo partly shown) (as salt: hydrochloride)
21,197 to 199 °C,"CC(C)N1CCC(N(C)C(=O)c2ccc(Cn3ncc4ccccc43)cc2)CC1 (as salt: hydrochloride) [Example 79, 4-(1H-indazol-1-ylmethyl)-N-(1-isopropylpiperidin-4-yl)-N-methylbenzamide]"
22,186 to 187 °C,Cc1nc2ccccc2n1-c1ccc(C(=O)N(C)[C@@H]2CCN(C3CCCC3)C2)cc1 (as salt: hydrochloride)
